Measured values as given in patent publication US20090203705A1, “Spiro Compounds As NPY Y5 Receptor Antagonists” (priority 2008, published 2009).
Counter-ions that a name gives are not always drawn.

Molecular target: T1, human NPY Y5 receptor (Homo sapiens, UniProt Q15761)
T1 construct: expressed in transfected cells; host or cells: HEK293 (cell line HEK 293 signal-hNPY Y5/G16z49)
T1 sequence (Q15761 1-445): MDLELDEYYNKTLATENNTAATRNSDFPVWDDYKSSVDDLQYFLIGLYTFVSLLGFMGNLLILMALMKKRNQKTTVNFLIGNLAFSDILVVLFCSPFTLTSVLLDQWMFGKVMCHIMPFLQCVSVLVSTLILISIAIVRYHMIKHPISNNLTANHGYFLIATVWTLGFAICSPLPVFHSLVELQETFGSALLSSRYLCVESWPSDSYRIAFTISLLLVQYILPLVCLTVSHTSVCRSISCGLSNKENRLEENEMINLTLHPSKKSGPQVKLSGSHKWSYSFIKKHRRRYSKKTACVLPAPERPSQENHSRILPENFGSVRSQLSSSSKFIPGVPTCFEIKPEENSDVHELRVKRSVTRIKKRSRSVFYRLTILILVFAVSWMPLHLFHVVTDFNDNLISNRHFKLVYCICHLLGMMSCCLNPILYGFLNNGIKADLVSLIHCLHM
Test: FLIPR/Ca2+ functional activity at recombinant human NPY Y5 receptor
Format: cell-based
Details: for activity at the highest concentration set by the experiment: assay not given, towards NPY Y5 receptor; for Ki: HEK 293 signal-hNPY Y5/G16z49 cells, inhibition of calcium release by PYY at EC80, Cheng-Prusoff, read-out: fpKi
Source text: The functional activity of the compounds of the invention for the NPY Y5 receptor may be determined by the FLIPR/Ca^2+ assay as described below. Such potency is typically calculated from the IC50 obtained in FLIPR experiments as the concentration of a compound necessary to decrease 50% of the calcium release following cells exposure to a concentration of PYY eliciting 80% response (i.e. EC80), and is reported as a “fKi” value calculated by the following equation: […]
where EC80 and EC50 corresponding to the agonist (PYY) concentrations that eliciting 80% and 50% response, respectively (corresponding to the Cheng and Prusoff equation). In the context of the present invention pfKi values (corresponding to the […] of fKi) are used instead of fKi; pfKi results are only estimated to be accurate to about 0.3-0.5.
The functional activity at the human NPY Y5 receptor stably expressed in HEK293 cells was assessed using FLIPR/Ca^2+ methodology (cell line name: HEK 293 signal-hNPY Y5/G16z49). The assay is configured to re-direct receptor-mediated signalling to the calcium release from intracellular stores via the promiscuous Gal 6z49 protein. PYY (peptide YY) is an endogenous agonist and can activate the receptor, thereupon causing an increase in the level of calcium in the cells sensed by Fluo4-AM and measured by FLIPR. Antagonist effects are monitored by the blockade or decrease in calcium release once cells co-expressing hNPY Y5 receptor and Ga16z49 are exposed to a concentration of PYY eliciting 80% response (i.e. EC80). A non-linear, 4 parameter logistic curve-fit of the data generated pIC50 value. Applying the Cheng-Prusoff equation to antagonist concentration-response for inhibition of fixed PYY concentration yielded the fpKi values.
Cells are cultured in DMEM/F12 supplemented with 10% FBS, 2 mM Glutamine, 200 μg/ml hygromycin B and 500 μg/ml G418. The day before a FLIPR experiment, cells are plated out into 384-well Poly-D-Lysine coated FLIPR plates at a density of 200'000 cells/ml corrects to give 10'000 cells per 50 μL per well using medium without antibiotics. On the day of experiment, cells are washed with an assay buffer containing 20 mM HEPES/NaOH, 145 mM NaCl, 5 mM KCl, 1 mM MgCl2, 2 mM CaCl2, 1 g/L D-glucose and 2.5 mM probenecid, pH 7.3 and loaded with 2 μM Fluo-4 AM for 60 min at 37° C. and 5% CO2. The excess of dye solution is removed by washing cells with buffer. Compound solutions, prepared by serially diluting compounds in neat DMSO and then a final 1:50 dilution step in assay buffer added with 0.05% pluronic acid, are added and incubated with the loaded cells for 30 min at 37° C. and 5% CO2.
Cells are then put in the FLIPR for the stimulus addition corresponding to a concentration of PYY eliciting 80% of the response. The response of cells to the agonist is fast and measured for 2 min after PYY addition.

| Molecule | activity at the highest concentration set by the experiment | Ki [nM] |
| --- | --- | --- |
| Cl.O=C1OC2(CCC(CNc3cc(-c4ccccc4)ccn3)CC2)CN1c1cccnn1 (stereo not drawn) [Example 1-39, (Trans)-8-{[(4-phenyl-2-pyridinyl)amino]methyl}-3-(3-pyridazinyl)-1-oxa-3-azaspiro[4.5]decan-2-one hydrochloride] | don't show activity | – |
| Cl.Cl.O=C1OC2(CCC(CNc3ccc(C(F)(F)F)nc3)CC2)CN1c1cccnc1 (stereo not drawn) [Example 1-55, (Trans)-3-(3-pyridinyl)-8-({[6-(trifluoromethyl)-3-pyridinyl]amino}methyl)-1-oxa-3-azaspiro[4.5]decan-2-one Dihydrochloride] | don't show activity | – |
| Cl.Cl.O=C1O[C@]2(CC[C@H](CNc3ccc(N4CCOCC4)nc3)CC2)CN1c1ccccn1 [Example 1-57, (Trans)-8-({[6-(4-morpholinyl)-3-pyridinyl]amino}methyl)-3-(2-pyridinyl)-1-oxa-3-azaspiro[4.5]decan-2-one.dihydrochloride] | don't show activity | – |
| Cn1ccnc1-c1cnc(NCC2CCC3(CC2)CN(c2ccccn2)C(=O)O3)nc1 (stereo not drawn) [Example 3-6, (Trans)-8-({[5-(1-methyl-1H-imidazol-2-yl)-2-pyrimidinyl]amino}methyl)-3-(2-pyridinyl)-1-oxa-3-azaspiro[4.5]decan-2-one] | don't show activity | – |
| O=C1OC2(CCC(CNc3ncc(Br)cn3)CC2)CN1c1ccccn1 (stereo not drawn) [Example 3-7, (Trans)-8-{[(5-bromo-2-pyrimidinyl]amino}methyl)-3-(2-pyridinyl)-1-oxa-3-azaspiro[4.5]decan-2-one] | don't show activity | – |
| O=C1OC2(CCC(CNc3ncc(-c4ccnnc4)cn3)CC2)CN1c1ccccn1 (stereo not drawn) [Example 3-9, (Trans)-8-({[5-(4-pyridazinyl)-2-pyrimidinyl]amino}methyl)-3-(2-pyridinyl)-1-oxa-3-azaspiro[4.5]decan-2-one] | don't show activity | – |
| Cl.O=C1OC2(CCC(CNc3nccc(OCc4ccccc4)n3)CC2)CN1c1cccnn1 (stereo not drawn) [Example 3-12, (Trans)-8-[({4-[(phenylmethyl)oxy]-2-pyrimidinyl}amino)methyl]-3-(3-pyridazinyl)-1-oxa-3-azaspiro[4.5]decan-2-one hydrochloride] | don't show activity | – |
| O=C1O[C@]2(CC[C@H](CNc3ccc(-c4cc(F)cc(F)c4)nn3)CC2)CN1c1cccnn1 [Example 4-3, (Trans)-8-({[6-(3,5-difluorophenyl)-3-pyridazinyl]amino}methyl)-3-(3-pyridazinyl)-1-oxa-3-azaspiro[4.5]decan-2-one Dihydrochloride] | – | ≤ 0.1 |
| O=C1O[C@]2(CC[C@H](CNc3ccc(-c4ccccc4F)nn3)CC2)CN1c1cccnc1F [Example 4-7, (Trans)-8-({[6-(2-fluorophenyl)-3-pyridazinyl]amino}methyl)-3-(2-fluoro-3-pyridinyl)-1-oxa-3-azaspiro[4.5]decan-2-one Hydrochloride] | – | ≤ 0.316 |
| CC(C)(C)OCCOc1ccc(NCC2CCC3(CC2)CN(c2cccnn2)C(=O)O3)nn1.Cl.Cl (stereo not drawn) [Example 4-10, (Trans)-8-({[6-({2-[(1,1-dimethylethyl)oxy]ethyl}oxy)-3-pyridazinyl]amino}methyl)-3-(3-pyridazinyl)-1-oxa-3-azaspiro[4.5]decan-2-one dihydrochloride] | don't show activity | – |
| O=C1OC2(CCC(CNc3ccc(Cl)nn3)CC2)CN1c1ccccn1 (stereo not drawn) [Example 4-12, (Trans)-8-{[(6-chloro-3-pyridazinyl)amino]methyl}-3-(2-pyridinyl)-1-oxa-3-azaspiro[4.5]-decan-2-one] | don't show activity | – |
| O=C1O[C@]2(CC[C@H](CNc3ccc(-c4ccccc4)nn3)CC2)CN1c1cccnn1 [Example 4-38, (Trans)-8-{[(6-phenyl-3-pyridazinyl)amino]methyl}-3-(3-pyridazinyl)-1-oxa-3-azaspiro[4.5]decan-2-one Dihydrochloride] | – | ≤ 1 |
| Cc1cc(N2C[C@]3(CC[C@@H](CNc4ccc(-c5ccccc5C)nn4)CC3)OC2=O)ccn1 [Example 4-39, (Trans)-8-({[6-(2-methylphenyl)-3-pyridazinyl]amino}methyl)-3-(2-methyl-4-pyridinyl)-1-oxa-3-azaspiro[4.5]decan-2-one Dihydrochloride] | – | ≤ 0.1 |
| O=C1O[C@]2(CC[C@H](CNc3ccc(-c4cccc(C(F)(F)F)c4)nn3)CC2)CN1c1cccnn1 [Example 4-40, (Trans)-3-(3-pyridazinyl)-8-[({6-[3-(trifluoromethyl)phenyl]-3-pyridazinyl}amino)methyl]-1-oxa-3-azaspiro[4.5]decan-2-one Hydrochloride] | – | ≤ 0.1 |
| O=C1O[C@]2(CC[C@H](CNc3ccc(Oc4ccccc4OC(F)(F)F)nn3)CC2)CN1c1cccnn1 [Example 4-56, (Trans)-3-(3-pyridazinyl)-8-({[6-({2-[(trifluoromethyl)oxy]phenyl}oxy)-3-pyridazinyl]amino}methyl)-1-oxa-3-azaspiro[4.5]decan-2-one] | – | ≤ 0.1 |
| Cl.O=C1OC2(CCC(CNc3nsc4ccccc34)CC2)CN1c1cccnn1 (stereo not drawn) [Example 5-5, (Trans)-8-[(1,2-benzisothiazol-3-ylamino)methyl]-3-(3-pyridazinyl)-1-oxa-3-azaspiro[4.5]-decan-2-one Hydrochloride] | don't show activity | – |
| (Trans)-8-({[4-(1-pyrimidinyl)-2-pyrimidinyl]amino}methyl)-3-(3-pyridazinyl)-1-oxa-3-azaspiro[4.5]decan-2-one Dihydrochloride [Example 3-11] | don't show activity | – |
